PubChem BioAssay AID1963867 (Molecular Pharmacology Branch, DTP, NCI, 2024)

System: KRAS-mutant PDC tumor spheroid with HUVEC/MSC, viability
Test: Anticancer human tumor 327498-153-R-J2-PDC patient-derived uterine carcinosarcoma cell line growth inhibition [KRAS2]
Conditions: for IC50: curve of first compound; for viability, T/C: stronger effect = lower value
From the text: Multicellular complex tumor spheroid response to RAS pathway inhibitors in combination with a targeted agents in patient-derived cell lines with oncogenic KRAS variants from multiple cancer types
A high-throughput screen of multi-cell type tumor spheroids was designed to identify active combinations of targeted small molecules and KRAS pathway inhibitors. Complex spheroids include a stromal component modeled by human endothelial cells (HUVEC) and fibroblasts modeled by human mesenchymal stem cells (MSCs). The concentration ranges selected for each drug and investigational agent were based upon clinically achievable concentrations if the clinical Cmax of the agent was known.
Compounds. The drugs and investigational agents: BI-3406 (NSC825286), BAY-293 (NSC824723), batoprotafib (TNO155; NSC825523), sotorasib (AMG 510; NSC818433), MRTX1257 (NSC819558), elimusertib (BAY 1895344; NSC800525), molibresib (GSK525762; NSC774829), temuterkib (LY3214996; NSC803410), venetoclax (NSC766270), alisertib (NSC759677), olaparib (NSC753686), talazoparib (NSC767125), erdafitinib (NSC781556), ipatasertib (NSC767898), cabozantinib (NSC761068), nintedanib (NSC756659), abemaciclib (NSC768073), docetaxel (NSC628503), trametinib (NSC758246), and sapanisertib (NSC764658) were obtained from the National Cancer Institute (NCI) Developmental Therapeutics Program Chemical Repository. The FDA-approved anticancer drug set is available from the Developmental Therapeutics Program. […] The stock solutions were prepared in dimethyl sulfoxide (DMSO, Sigma-Aldrich, St. Louis, MO, cat. D2650) at 800-fold the tested concentration and stored at -70 degrees C prior to their use. All drugs and investigational agents were tested over a range starting from a high concentration at or near the clinical Cmax and decreasing in half-log increments. If the clinical Cmax for an agent had not been determined, the highest concentration tested was 10 microM.
Cell Culture. All cells were maintained in an incubator at 37 degrees C and 5% CO2 with 95% humidity. The PDC lines were cultured according to standard operating procedures established by the NCI PDMR (https://pdmr.cancer.gov/sops/default.htm). Briefly, all PDCs were thawed and cultured in Matrigel-coated flasks prepared with a working solution of 1X Ham's F-12 nutrient mix, without supplementation (Invitrogen, Waltham, MA, cat. 11765054), 100 U/mL penicillin-streptomycin (Invitrogen, cat. 15140122), and 2.5% Matrigel (Corning Inc., Corning, NY, cat. 354248) for the first three passages. All PDCs were cultured in complete DMEM/F-12 media containing advanced DMEM/F-12 (Invitrogen, cat. 12634028), 4.9% defined fetal bovine serum, heat inactivated (HyClone Laboratories Inc., Logan, UT, cat. SH30070.03HI), 389 ng/mL hydrocortisone (Sigma-Aldrich, cat. H4001), 9.7 ng/mL human EGF recombinant protein (Invitrogen, cat. PHG0313), 23.4 microg/mL adenine (Sigma-Aldrich, cat. A2786), 97.3 U/mL penicillin-streptomycin (Invitrogen, cat. 15140122), 1.9 mM L-glutamine (Invitrogen, cat. 25030081), and 9.7 microM Y-27632 dihydrochloride (Tocris Bioscience, Bristol, United Kingdom, cat. 1254). The PDCs were cultured in complete DMEM/F12 media without 9.7 microM Y-27632 dihydrochloride for at least two passages prior to the screen. The established cell line HOP-62 was cultured in RPMI 1640 medium, HEPES (Invitrogen, cat. 22400105) with 10% defined fetal bovine serum (HyClone Laboratories Inc., cat. SH30070.03) and 2 mM L-glutamine (Invitrogen, cat. 25030081). The pooled donor HUVEC were cultured in endothelial cell growth medium 2 (PromoCell, Heidelberg, Germany, cat. C-22011) and the hMSC were cultured in mesenchymal stem cell growth medium 2 (PromoCell, cat. C-28009). For all experiments, HUVEC and hMSC were used at passages </=5, while the malignant cell lines were used at passages </=15. […]

[1] = second compound 0.1 µM, first compound 0.0316 µM
[2] = second compound 0.1 µM, first compound 0.1 µM
[3] = second compound 0.1 µM, first compound 0.316 µM
[4] = second compound 0.1 µM, first compound 1 µM
[5] = second compound 0.1 µM, first compound 3.16 µM
[6] = second compound 0.1 µM, first compound 10 µM
[7] = second compound 0.316 µM, first compound 0.0316 µM
[8] = second compound 0.316 µM, first compound 0.1 µM
[9] = second compound 0.316 µM, first compound 0.316 µM
[10] = second compound 0.316 µM, first compound 1 µM
[11] = second compound 0.316 µM, first compound 3.16 µM
[12] = second compound 0.316 µM, first compound 10 µM
[13] = second compound 1 µM, first compound 0.0316 µM
[14] = second compound 1 µM, first compound 0.1 µM
[15] = second compound 1 µM, first compound 0.316 µM
[16] = second compound 1 µM, first compound 1 µM
[17] = second compound 1 µM, first compound 3.16 µM
[18] = second compound 1 µM, first compound 10 µM
[19] = second compound 3.16 µM, first compound 0.0316 µM
[20] = second compound 3.16 µM, first compound 0.1 µM
[21] = second compound 3.16 µM, first compound 0.316 µM
[22] = second compound 3.16 µM, first compound 1 µM
[23] = second compound 3.16 µM, first compound 3.16 µM
[24] = second compound 3.16 µM, first compound 10 µM
[25] = second compound 10 µM, first compound 0.0316 µM
[26] = second compound 10 µM, first compound 0.1 µM
[27] = second compound 10 µM, first compound 0.316 µM
[28] = second compound 10 µM, first compound 1 µM
[29] = second compound 10 µM, first compound 3.16 µM
[30] = second compound 10 µM, first compound 10 µM
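Also: spheroids exposed to agents for seven days before reading.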
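For viability, T/C in this document: 100% = DMSO vehicle wells so lower means fewer viable cells.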

## COc1cc(Nc2ncc3c(n2)-c2ccc(Cl)cc2C(c2c(F)cccc2OC)=NC3)ccc1C(=O)O + C=CC(=O)N1CCN(c2nc(=O)n(-c3c(C)ccnc3C(C)C)c3nc(-c4c(O)cccc4F)c(F)cc23)C(C)C1
Second compound 0.1 µM
  IC50: < 31.6 nM
Second compound 0.316 µM
  IC50: < 31.6 nM
Second compound 1 µM
  IC50: < 31.6 nM
Second compound 3.16 µM
  IC50: < 31.6 nM
Second compound 10 µM
  IC50: < 31.6 nM
[1]
  viability, T/C: 12.1%
[2]
  viability, T/C: 9.76%
[3]
  viability, T/C: 10.6%
[4]
  viability, T/C: 12.4%
[5]
  viability, T/C: 12.6%
[6]
  viability, T/C: 9.6%
[7]
  viability, T/C: 10.1%
[8]
  viability, T/C: 11.5%
[9]
  viability, T/C: 11.1%
[10]
  viability, T/C: 9.91%
[11]
  viability, T/C: 13.6%
[12]
  viability, T/C: 10.8%
[13]
  viability, T/C: 10.6%
[14]
  viability, T/C: 12%
[15]
  viability, T/C: 10.6%
[16]
  viability, T/C: 10.7%
[17]
  viability, T/C: 12.5%
[18]
  viability, T/C: 11.3%
[19]
  viability, T/C: 9.6%
[20]
  viability, T/C: 11.2%
[21]
  viability, T/C: 10.2%
[22]
  viability, T/C: 11.9%
[23]
  viability, T/C: 12.6%
[24]
  viability, T/C: 10.9%
[25]
  viability, T/C: 9.5%
[26]
  viability, T/C: 13.1%
[27]
  viability, T/C: 12.6%
[28]
  viability, T/C: 12.4%
[29]
  viability, T/C: 15.2%
[30]
  viability, T/C: 11.9%

## COC(=O)c1ccc2c(C(=Nc3ccc(N(C)C(=O)CN4CCN(C)CC4)cc3)c3ccccc3)c(O)[nH]c2c1 + C=CC(=O)N1CCN(c2nc(=O)n(-c3c(C)ccnc3C(C)C)c3nc(-c4c(O)cccc4F)c(F)cc23)C(C)C1
Second compound 0.1 µM
  IC50: 68.6 nM
Second compound 0.316 µM
  IC50: < 31.6 nM
Second compound 1 µM
  IC50: < 31.6 nM
Second compound 3.16 µM
  IC50: < 31.6 nM
Second compound 10 µM
  IC50: < 31.6 nM
[1]
  viability, T/C: 55.6%
[2]
  viability, T/C: 47%
[3]
  viability, T/C: 33.8%
[4]
  viability, T/C: 21.5%
[5]
  viability, T/C: 8.48%
[6]
  viability, T/C: 8.12%
[7]
  viability, T/C: 48.5%
[8]
  viability, T/C: 46.1%
[9]
  viability, T/C: 31.3%
[10]
  viability, T/C: 12.5%
[11]
  viability, T/C: 6.86%
[12]
  viability, T/C: 4.83%
[13]
  viability, T/C: 46%
[14]
  viability, T/C: 44.4%
[15]
  viability, T/C: 27.5%
[16]
  viability, T/C: 16.6%
[17]
  viability, T/C: 7.4%
[18]
  viability, T/C: 3.38%
[19]
  viability, T/C: 42.4%
[20]
  viability, T/C: 35%
[21]
  viability, T/C: 19.1%
[22]
  viability, T/C: 11.5%
[23]
  viability, T/C: 6.26%
[24]
  viability, T/C: 4.47%
[25]
  viability, T/C: 39%
[26]
  viability, T/C: 31.1%
[27]
  viability, T/C: 22.9%
[28]
  viability, T/C: 13.2%
[29]
  viability, T/C: 3.4%
[30]
  viability, T/C: 1.04%

## O=C(c1cc(Cc2n[nH]c(=O)c3ccccc23)ccc1F)N1CCN(C(=O)C2CC2)CC1 + C=CC(=O)N1CCN(c2nc(=O)n(-c3c(C)ccnc3C(C)C)c3nc(-c4c(O)cccc4F)c(F)cc23)C(C)C1
Second compound 0.1 µM
  IC50: 970 nM
Second compound 0.316 µM
  IC50: 713 nM
Second compound 1 µM
  IC50: 588 nM
Second compound 3.16 µM
  IC50: 488 nM
Second compound 10 µM
  IC50: < 31.6 nM
[1]
  viability, T/C: 60.2%
[2]
  viability, T/C: 57.3%
[3]
  viability, T/C: 65.3%
[4]
  viability, T/C: 48.8%
[5]
  viability, T/C: 23.6%
[6]
  viability, T/C: 16.3%
[7]
  viability, T/C: 59.5%
[8]
  viability, T/C: 59.4%
[9]
  viability, T/C: 57.5%
[10]
  viability, T/C: 46.8%
[11]
  viability, T/C: 21.9%
[12]
  viability, T/C: 15.2%
[13]
  viability, T/C: 66.3%
[14]
  viability, T/C: 60.1%
[15]
  viability, T/C: 56%
[16]
  viability, T/C: 46.2%
[17]
  viability, T/C: 26.5%
[18]
  viability, T/C: 16.4%
[19]
  viability, T/C: 66%
[20]
  viability, T/C: 61.2%
[21]
  viability, T/C: 51.7%
[22]
  viability, T/C: 46.4%
[23]
  viability, T/C: 22.6%
[24]
  viability, T/C: 18.2%
[25]
  viability, T/C: 49.5%
[26]
  viability, T/C: 48.2%
[27]
  viability, T/C: 47.3%
[28]
  viability, T/C: 36.3%
[29]
  viability, T/C: 24.8%
[30]
  viability, T/C: 18.9%

## CC1(C)CCC(CN2CCN(c3ccc(C(=O)NS(=O)(=O)c4ccc(NCC5CCOCC5)c([N+](=O)[O-])c4)c(Oc4cnc5[nH]ccc5c4)c3)CC2)=C(c2ccc(Cl)cc2)C1 + COc1cc2nc(C)nc(NC(C)c3cc(N)cc(C(F)(F)F)c3)c2cc1OC1CCOC1
Second compound 0.1 µM
  IC50: 3200 nM
Second compound 0.316 µM
  IC50: 2270 nM
Second compound 1 µM
  IC50: 2010 nM
Second compound 3.16 µM
  IC50: 1490 nM
Second compound 10 µM
  IC50: 178 nM
[1]
  viability, T/C: 78.8%
[2]
  viability, T/C: 80.5%
[3]
  viability, T/C: 76.9%
[4]
  viability, T/C: 77.3%
[5]
  viability, T/C: 50.5%
[6]
  viability, T/C: 4.9%
[7]
  viability, T/C: 74.3%
[8]
  viability, T/C: 64.3%
[9]
  viability, T/C: 75.4%
[10]
  viability, T/C: 71.1%
[11]
  viability, T/C: 41.5%
[12]
  viability, T/C: 1.82%
[13]
  viability, T/C: 74.1%
[14]
  viability, T/C: 72%
[15]
  viability, T/C: 65.9%
[16]
  viability, T/C: 67.8%
[17]
  viability, T/C: 38.8%
[18]
  viability, T/C: 0.73%
[19]
  viability, T/C: 65.2%
[20]
  viability, T/C: 65.3%
[21]
  viability, T/C: 66.7%
[22]
  viability, T/C: 61.5%
[23]
  viability, T/C: 28.4%
[24]
  viability, T/C: 3.34%
[25]
  viability, T/C: 53%
[26]
  viability, T/C: 54.6%
[27]
  viability, T/C: 42.1%
[28]
  viability, T/C: 39.9%
[29]
  viability, T/C: 11.5%
[30]
  viability, T/C: 0.44%
